Laboratory results as given in ChEMBL document CHEMBL3244263, “Derivatives of 1,2,3,11a-tetrahydro-5H-pyrrolo[2,1-c][1,4]benzodiazepine-5,11(10H)-dione as anxiolytic agents” (J Med Chem, 1978).
Calls of active or inactive are those of the source. The calls are words filed in the database; no cut-off is given here.

What was measured:
Rattus norvegicus [1] = assay: Anxiolytic activity in po dosed rat assessed as protection against pentylenetetrazole-induced seizures administered in 2% starch; type: functional
Rattus norvegicus [2] = organism: Rattus norvegicus; assay: Drug metabolism in rat treated with 10-methyl-2,3-dihydro-1H-benzo[e]pyrrolo[1,2-a][1,4]diazepine-5,11(10H,11aH)-dione; type: ADME, organism-based; conditions: in vivo
Rattus norvegicus [3] = organism: Rattus norvegicus; assay: Toxicity in rat assessed as depression; type: organism-based; conditions: in vivo
Rattus norvegicus [4] = organism: Rattus norvegicus; assay: Drug metabolism in rat assessed as 2,3-dihydro-1H-benzo[e]pyrrolo[1,2-a][1,4]diazepine-5,11(10H,11aH)-dione formation; type: ADME, organism-based; conditions: in vivo
Rattus norvegicus [5] = organism: Rattus norvegicus; assay: Drug metabolism in rat assessed as aliphatic hydroxylated product formation; type: ADME, organism-based; conditions: in vivo
Rattus norvegicus [6] = organism: Rattus norvegicus; assay: Drug metabolism in rat assessed as monohydroxylated product formation; type: ADME, organism-based; conditions: in vivo
Rattus norvegicus [7] = organism: Rattus norvegicus; assay: Drug metabolism in rat assessed as dihydroxylated product formation; type: ADME, organism-based; conditions: in vivo
Rattus norvegicus [8] = organism: Rattus norvegicus; assay: Drug metabolism in rat assessed as 3,11a-dihydroxy-10-methyl-2,3-dihydro-1H-benzo[e]pyrrolo[1,2-a][1,4]diazepine-5,11(10H,11aH)-dione formation by GC-MS/NMR analysis; type: ADME, organism-based; conditions: in vivo
Mus musculus = organism: Mus musculus; assay: Anxiolytic activity in mouse assessed as suppression of pentylenetetrazole-induced convulsion; type: functional, organism-based
Canis familiaris = organism: Canis familiaris; assay: Anxiolytic activity in dog assessed as suppression of pentylenetetrazole-induced convulsion; type: functional, organism-based; conditions: Canis lupus familiaris
Rattus norvegicus [9] = organism: Rattus norvegicus; assay: Anxiolytic activity in thirsty rat by increased conflict responding test; type: functional, organism-based
Squirrel monkey = assay: Anxiolytic activity in squirrel monkey by conflict responding test; type: functional, organism-based; conditions: Saimiri sciureus
Homo sapiens = organism: Homo sapiens; assay: Anxiolytic activity in human; type: functional, organism-based
[10] = Rattus norvegicus, po, read-out: ED50

SMILES: O=C1Nc2ccc(F)cc2C(=O)N2CCCC12 (configuration not stated)
- ED50 (Rattus norvegicus [1]; [10]): 23 mg/kg

SMILES: CN1C(=O)C2(O)CCC(O)N2C(=O)c2ccccc21 (configuration not stated)
- Drug metabolism (Rattus norvegicus [2]): metabolite_detected

SMILES: CN1C(=O)C2CCCN2C(=O)c2cc(F)ccc21 (single isomer, unassigned; (+))
- ED50 (Rattus norvegicus [1]; [10]): 3.9 mg/kg

SMILES: CN1C(=O)C2CCCN2C(=O)c2ccccc21 (single isomer, unassigned; (+)) [listing 1 of 2 here]
- ED50 (Rattus norvegicus [1]): 9.9 mg/kg
- Activity (Rattus norvegicus [3]): Non-toxic
- Drug metabolism (Rattus norvegicus [4]): metabolite_detected
- Drug metabolism (Rattus norvegicus [5]): metabolite_detected
- Drug metabolism (Rattus norvegicus [6]): metabolite_detected
- Drug metabolism (Rattus norvegicus [7]): metabolite_detected
- Drug metabolism (Rattus norvegicus [8]): metabolite_detected

SMILES: O=C1Nc2ccccc2C(=O)N2CCCC12 (single isomer, unassigned; (+))
- ED50 (Rattus norvegicus [1]; [10]): 35 mg/kg

SMILES: CN1C(=O)C2CCCN2C(=O)c2ccccc21 (single isomer, unassigned; (+)) [listing 2 of 2 here]
- Activity (Mus musculus): Active
- Activity (Canis familiaris): Active
- Activity (Rattus norvegicus [9]): Active
- Activity (Squirrel monkey): Active
- Activity (Homo sapiens): inactive

SMILES: CN1C(=O)C2CCCN2C(=O)c2ccccc21 (single isomer, unassigned; (-))
- ED50 (Rattus norvegicus [1]): >200 mg/kg

SMILES: CN1C(=O)C2CCCN2C(=O)c2ccccc21 (stereo in doubt; 2)
- ED50 (Rattus norvegicus [1]): 20.2 mg/kg

SMILES: CNC1=Nc2ccc(Cl)cc2C(c2ccccc2)=[N+]([O-])C1 [CHLORDIAZEPOXIDE]
- ED50 (Rattus norvegicus [1]; [10]): 2.5 mg/kg
- Activity (Rattus norvegicus [3]): Toxic

SMILES: CN1C(=O)CN=C(c2ccccc2)c2cc(Cl)ccc21 [DIAZEPAM]
- Activity (Rattus norvegicus [3]): Toxic

SMILES: CCCC(C)(COC(N)=O)COC(N)=O [MEPROBAMATE]
- ED50 (Rattus norvegicus [1]; [10]): 21.5 mg/kg
